Measurements published in PMC10967972, “Different Coactivator Recruitment to Human PPARα/δ/γ Ligand-Binding Domains by Eight PPAR Agonists to Treat Nonalcoholic Fatty Liver Disease” (Biomedicines, 2024).
Where two headings read alike, the source gives them in different places.

How the values were obtained:
Assay type in all cases: biochemical
human PPARδ-LBD = biological target: T1, human PPARδ-LBD (Homo sapiens, UniProt Q03181); assay: TR-FRET coactivator recruitment assay, PPARδ-LBD; conditions: for Approximate potency order in the recruitment of four coactivators, PPARδ: evaluated based on EC50 values, PGC, PGC1α, SRC, SRC1, TRAP, TRAP220; for EC50: Buffer A
T1 construct: PPARδ-LBD (AAs 170–441); made in house
T1 sequence (Q03181 170-441): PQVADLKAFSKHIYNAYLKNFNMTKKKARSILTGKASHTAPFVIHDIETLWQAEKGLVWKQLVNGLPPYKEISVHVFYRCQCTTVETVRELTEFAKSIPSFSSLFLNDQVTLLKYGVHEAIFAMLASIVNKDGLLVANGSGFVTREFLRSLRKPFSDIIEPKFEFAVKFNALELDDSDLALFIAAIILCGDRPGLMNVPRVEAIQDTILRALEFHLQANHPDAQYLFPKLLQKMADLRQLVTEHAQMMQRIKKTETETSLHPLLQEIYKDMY

human PPARα-LBD = biological target: T2, human PPARα-LBD (Homo sapiens, UniProt Q07869); assay: TR-FRET coactivator recruitment assay, PPARα-LBD; conditions: for Approximate potency order in the recruitment of four coactivators, PPARα: evaluated based on EC50 values, PGC, PGC1α, SRC, SRC1, TRAP, TRAP220; for EC50: Buffer A
T2 construct: Human PPARα-LBD [amino acids (AAs) 200–468]; made in house
T2 sequence (Q07869 200-468): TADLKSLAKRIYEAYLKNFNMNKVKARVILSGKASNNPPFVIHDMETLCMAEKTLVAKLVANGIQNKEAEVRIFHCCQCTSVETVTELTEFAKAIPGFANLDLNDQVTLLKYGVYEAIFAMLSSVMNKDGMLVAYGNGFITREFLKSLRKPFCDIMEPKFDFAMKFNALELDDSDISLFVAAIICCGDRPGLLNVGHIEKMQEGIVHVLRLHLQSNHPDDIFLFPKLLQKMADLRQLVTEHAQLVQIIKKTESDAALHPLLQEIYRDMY

human PPARγ-LBD = biological target: T3, human PPARγ-LBD (Homo sapiens, UniProt P37231); assay: TR-FRET coactivator recruitment assay, PPARγ-LBD; conditions: for Approximate potency order in the recruitment of four coactivators, PPARγ: evaluated based on EC50 values, PGC, PGC1α, SRC, SRC1, TRAP, TRAP220
T3 construct: PPARγ-LBD (AAs 203–477 in isoform 1); made in house
T3 sequence (P37231 203-477 isoform P37231-2): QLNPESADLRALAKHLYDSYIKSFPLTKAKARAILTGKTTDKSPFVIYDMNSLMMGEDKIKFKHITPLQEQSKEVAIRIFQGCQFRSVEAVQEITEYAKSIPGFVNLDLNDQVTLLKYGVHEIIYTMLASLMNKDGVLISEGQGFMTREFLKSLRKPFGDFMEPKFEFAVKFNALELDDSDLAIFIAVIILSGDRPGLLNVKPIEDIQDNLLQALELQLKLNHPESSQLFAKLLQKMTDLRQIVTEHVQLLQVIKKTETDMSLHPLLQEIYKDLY

[1] = read-out: PPARδ CBP % of GW501516 max response
[2] = read-out: PPARδ PGC1α % of GW501516 max response
[3] = read-out: PPARδ SRC1 % of GW501516 max response
[4] = read-out: PPARδ TRAP220 % of GW501516 max response
[5] = read-out: PPARα CBP % of GW7647 max response
[6] = read-out: PPARα PGC1α % of GW7647 max response
[7] = read-out: PPARα SRC1 % of GW7647 max response
[8] = read-out: PPARα TRAP220 % of GW7647 max response
[9] = read-out: PPARγ CBP % of GW1929 max response
[10] = read-out: PPARγ PGC1α % of GW1929 max response
[11] = read-out: PPARγ SRC1 % of GW1929 max response
[12] = read-out: PPARγ TRAP220 % of GW1929 max response
[13] = CBP peptide recruitment, read-out: PPARα CBP EC50
[14] = PGC1α peptide recruitment, read-out: PPARα PGC1α EC50
[15] = SRC1 peptide recruitment, read-out: PPARα SRC1 EC50
[16] = TRAP220 peptide recruitment, read-out: PPARα TRAP220 EC50

Compound	Approximate potency order in the recruitment of four coactivators, PPARδ (human PPARδ-LBD)	Emax (human PPARδ-LBD; [1])	Emax (human PPARδ-LBD; [2])	Emax (human PPARδ-LBD; [3])	Emax (human PPARδ-LBD; [4])	Approximate potency order in the recruitment of four coactivators, PPARα (human PPARα-LBD)	Emax (human PPARα-LBD; [5])	Emax (human PPARα-LBD; [6])	Emax (human PPARα-LBD; [7])	Emax (human PPARα-LBD; [8])	Approximate potency order in the recruitment of four coactivators, PPARγ (human PPARγ-LBD)	Emax (human PPARγ-LBD; [9])	Emax (human PPARγ-LBD; [10])	Emax (human PPARγ-LBD; [11])	Emax (human PPARγ-LBD; [12])	EC50 (human PPARα-LBD; [13])	EC50 (human PPARα-LBD; [14])	EC50 (human PPARα-LBD; [15])	EC50 (human PPARα-LBD; [16])	also measured
CCc1ccc(CCOc2ccc(CC3SC(=O)NC3=O)cc2)nc1 (centres unmarked) [Pioglitazone, pioglitazone]	No activation	2.47%	4.53%	1.19%	1.55%	CBP>>>PGC=SRC=TRAP	34.9%	13.9%	8.37%	3.67%										
CSc1ccc(C(=O)/C=C/c2cc(C)c(OC(C)(C)C(=O)O)c(C)c2)cc1 [Elafibranor, elafibranor]	PGC>TRAP>CBP>SRC	30.8%	68.5%	19.9%	44%	CBP>PGC=SRC=TRAP	61.6%	45.6%	41.6%	36.2%	PGC=CBP=TRAP>SRC	36%	30.8%	9.11%	29%	2.77 µM	6.44 µM	4.98 µM	4.28 µM	recruitment of coactivators to PPARδ-LBD (in words) (human PPARδ-LBD; four coactivator peptides): effective; EC50 (human PPARγ-LBD; CBP peptide recruitment, Buffer A, read-out: PPARγ CBP EC50): > 10 µM; EC50 (human PPARγ-LBD; PGC1α peptide recruitment, Buffer A, read-out: PPARγ PGC1α EC50): > 10 µM; EC50 (human PPARγ-LBD; SRC1 peptide recruitment, Buffer A, read-out: PPARγ SRC1 EC50): > 30 µM; EC50 (human PPARγ-LBD; TRAP220 peptide recruitment, Buffer A, read-out: PPARγ TRAP220 EC50): > 10 µM
CC(C)(Oc1ccc(C(=O)c2ccc(Cl)cc2)cc1)C(=O)O [Fenofibric acid, fenofibric acid]	No activation	0.45%	0.16%	0.6%	2.76%	CBP>TRAP>PGC>SRC	80.8%	36.8%	78.3%	86%	PGC=CBP=TRAP>SRC	73%	82.5%	42%	64.8%	3.41 µM	8.02 µM	11.1 µM	7.33 µM	EC50 (human PPARδ-LBD; CBP peptide recruitment, read-out: PPARδ CBP EC50): > 500 µM; EC50 (human PPARδ-LBD; PGC1α peptide recruitment, read-out: PPARδ PGC1α EC50): > 500 µM; EC50 (human PPARδ-LBD; SRC1 peptide recruitment, read-out: PPARδ SRC1 EC50): > 500 µM; EC50 (human PPARδ-LBD; TRAP220 peptide recruitment, read-out: PPARδ TRAP220 EC50): > 500 µM
GW1929																				PPARγ CBP maximal fold-induction of basal levels (human PPARγ-LBD; CBP peptide, fold over no ligand): 14.7 ×; PPARγ PGC1α maximal fold-induction of basal levels (human PPARγ-LBD; PGC1α peptide, fold over no ligand): 11.9 ×; PPARγ SRC1 maximal fold-induction of basal levels (human PPARγ-LBD; SRC1 peptide, fold over no ligand): 12.6 ×; PPARγ TRAP220 maximal fold-induction of basal levels (human PPARγ-LBD; TRAP220 peptide, fold over no ligand): 15.5 ×; maximal fold-induction from basal (no ligand) levels on the four coactivators, PPARγ (human PPARγ-LBD; range over PGC1α, CBP, SRC1, TRAP220, Buffer A): 11.9–15.5 ×
